Several values for one entry are separate records, joined by “and”; a condition that tells them apart may be missing. Equal values may be shown once.
How the values were obtained:
[1] = target: T1, GAL-3C (Homo sapiens, UniProt P17931); assay: COIN-nMS, global fit over several glycan concentrations, 200 mM ammonium acetate, pH 6.9, 25 °C.; type: binding; design: gene LGALS3; C-terminal carbohydrate recognition domain fragment, residues 107-250; conditions: SD; read-out: Kd (COIN-nMS, global fit), Table S2
T1 sequence (P17931 107-250): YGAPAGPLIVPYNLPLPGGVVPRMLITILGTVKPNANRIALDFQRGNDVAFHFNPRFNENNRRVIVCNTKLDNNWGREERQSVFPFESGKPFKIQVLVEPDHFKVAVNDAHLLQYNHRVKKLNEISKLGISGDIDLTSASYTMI

[2] = target: T1, GAL-3C; assay: Literature reference values quoted in the results table, conditions not restated.; type: binding; design: gene LGALS3; C-terminal carbohydrate recognition domain fragment, residues 107-250; conditions: SD; read-out: Kd (Literature), Table S2; cited from earlier work
[3] = target: T1, GAL-3C; assay: Direct native ESI-MS at known concentrations with single glycans, 200 mM ammonium acetate, pH 6.9, 25 °C.; type: binding; design: gene LGALS3; C-terminal carbohydrate recognition domain fragment, residues 107-250; conditions: SD; read-out: Kd (nMS), Table S2
[4] = target: T1, GAL-3C; assay: COIN-nMS (slow mixing in nanoESI emitter, fit of eq 12) at one glycan concentration, 200 mM ammonium acetate, pH 6.9, 25 °C.; type: binding; design: gene LGALS3; C-terminal carbohydrate recognition domain fragment, residues 107-250; conditions: SD; read-out: Kd (COIN-nMS, individual experiments), Table S2
[5] = target: RCA-I (Ricinus communis agglutinin) (Ricinus communis, UniProt P06750); type: binding; conditions: read-out: Kd (Native); pH 6.9
[6] = target: Siglec-7; conditions: ITC; cited from earlier work
[7] = target: T2, GAL-7 (Homo sapiens, UniProt P47929); assay: Direct native ESI-MS at known concentrations with single glycans, 200 mM ammonium acetate, pH 6.9, 25 °C.; type: binding; conditions: SD; read-out: Kd (nMS), Table S2
T2 construct: gene LGALS7; homodimer (monomer MW 14.94 kDa)
T2 sequence (P47929 whole entry): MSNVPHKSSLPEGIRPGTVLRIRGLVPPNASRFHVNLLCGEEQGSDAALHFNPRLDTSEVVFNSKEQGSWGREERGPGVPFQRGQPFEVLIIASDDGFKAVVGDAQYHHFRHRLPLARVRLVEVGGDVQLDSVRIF

[8] = target: T2, GAL-7; assay: COIN-nMS, global fit over several glycan concentrations, 200 mM ammonium acetate, pH 6.9, 25 °C.; type: binding; conditions: SD; read-out: Kd (COIN-nMS, global fit), Table S2
[9] = target: T2, GAL-7; assay: COIN-nMS (slow mixing in nanoESI emitter, fit of eq 12) at one glycan concentration, 200 mM ammonium acetate, pH 6.9, 25 °C.; type: binding; conditions: SD; read-out: Kd (COIN-nMS, individual experiments), Table S2

## CC(=O)N[C@H]1C(O)O[C@H](CO)[C@@H](O[C@@H]2O[C@H](CO)[C@H](O)[C@H](O[C@H]3O[C@H](CO)[C@H](O)[C@H](O)[C@H]3O)[C@H]2O[C@@H]2O[C@@H](C)[C@@H](O)[C@@H](O)[C@@H]2O)[C@@H]1O (stereo partly drawn) [G1, α-D-Gal-(1→3)-[α-L-Fuc(1→2)]-β-D-Gal(1→4)-D-GlcNAc]
[1]
  Kd: 3.8 µM
[2]
  Kd: 4.5 µM
[3]
  Kd: 4.2 µM
[4]
  Kd: 3.2 µM and 3.7 µM and 5.8 µM

## CC(=O)N[C@H]1[C@H](O[C@H]2[C@H](O)[C@@H](NC(C)=O)C(O)O[C@@H]2CO)O[C@H](CO)[C@@H](O[C@@H]2O[C@H](CO[C@H]3O[C@H](CO)[C@@H](O)[C@H](O)[C@@H]3O[C@@H]3O[C@H](CO)[C@@H](O[C@@H]4O[C@H](CO)[C@H](O)[C@H](O)[C@H]4O)[C@H](O)[C@H]3NC(C)=O)[C@@H](O)[C@H](O[C@H]3O[C@H](CO)[C@@H](O)[C@H](O)[C@@H]3O[C@@H]3O[C@H](CO)[C@@H](O[C@@H]4O[C@H](CO)[C@H](O)[C@H](O)[C@H]4O)[C@H](O)[C@H]3NC(C)=O)[C@@H]2O)[C@@H]1O (stereo partly drawn) [HexNAc4Hex5]
[5]
  Kd: 1.22 ± 0.03 µM

## CC(=O)N[C@H]1[C@H]([C@H](O)[C@H](O)CO)O[C@@](O[C@H](CO)[C@@H](O)[C@@H]2O[C@@](O[C@H]3[C@@H](O)[C@@H](CO)O[C@@H](O[C@H]4[C@H](O)[C@@H](O)C(O)O[C@@H]4CO)[C@@H]3O)(C(=O)O)C[C@H](O)[C@H]2NC(C)=O)(C(=O)O)C[C@@H]1O (stereo partly drawn) [GD3, α-D-Neu5Ac-(2→8)-α-D-Neu5Ac-(2→3)-β-D-Gal-(1→4)-D-Glc]
[6]
  Kd: 98 µM

## CC(=O)N[C@H]1[C@H](O[C@H]2[C@@H](O)[C@@H](CO)O[C@@H](O[C@H]3[C@H](O[C@@H]4O[C@@H](C)[C@@H](O)[C@@H](O)[C@@H]4O)[C@@H](O)C(O)O[C@@H]3CO)[C@@H]2O)O[C@H](CO)[C@@H](O[C@@H]2O[C@H](CO)[C@H](O)[C@H](O)[C@H]2O)[C@@H]1O[C@@H]1O[C@@H](C)[C@@H](O)[C@@H](O)[C@@H]1O (stereo partly drawn) [G3, Gal-(1→4)-[α-L-Fuc(1→3)]-β-D-GlcNAc-(1→3)-β-D-Gal(1→4)[α-L-Fuc(1→3)]-D-Glc]
[7]
  Kd: 518 µM
[8]
  Kd: 521 µM
[9]
  Kd: 524 µM and 507 µM and 537 µM

— article PMC10303200 (ACS Central Science, 2023)
